Measurements: patent publication US8927559B2, “Quinazolinone-type compounds as CRTH2 antagonists” (Merck Sharp & Dohme Corp., priority 2010, dated 2015)
Several values for one entry are separate records, joined by “and”; a condition that tells them apart may be missing. Equal values may be shown once.

Target: T1, CRTH2 receptor (hCRTH2) (Homo sapiens, UniProt Q9Y5Y4)
T1 construct: expressed in transfected cells; host or cells: HEK cells (HEK-hCRTH2 cell line), membranes
T1 sequence (Q9Y5Y4 1-395): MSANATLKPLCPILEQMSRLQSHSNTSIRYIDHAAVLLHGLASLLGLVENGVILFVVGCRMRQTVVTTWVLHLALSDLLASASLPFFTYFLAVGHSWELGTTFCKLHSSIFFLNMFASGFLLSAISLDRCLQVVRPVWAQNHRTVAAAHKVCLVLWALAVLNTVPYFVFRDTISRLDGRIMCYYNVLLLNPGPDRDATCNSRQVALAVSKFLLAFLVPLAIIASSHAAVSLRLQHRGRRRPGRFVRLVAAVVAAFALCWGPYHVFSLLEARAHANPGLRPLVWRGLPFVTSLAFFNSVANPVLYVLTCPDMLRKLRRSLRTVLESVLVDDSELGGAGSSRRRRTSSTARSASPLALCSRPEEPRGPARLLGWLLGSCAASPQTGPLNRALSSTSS
Test: Radioligand binding assay ([3H]PGD2 competition, membranes of HEK-hCRTH2 cell line)
Details: 3.0 nM [3H]PGD2, HEK-hCRTH2 membranes, 60 min, room temperature; read-out: Ki
Method in brief: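 Membranes (8-20 μg protein) from HEK cells expressing human CRTH2 were incubated with [3H]PGD2 and competitor in 1% DMSO for 60 min at room temperature. Non-specific binding was defined with excess PGD2. Bound radioactivity was separated by filtration and counted by melt-on scintillation.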

Row | Compound | Ki
1 | C[C@@]1(C(=O)Nc2cc(F)ccc2O)CC(c2ccc3c(=O)n(-c4ccc(F)cc4)c(CCCCC(=O)O)nc3c2)=NO1 [Example 190] | 50 to 100 nM and 96.2 nM
2 | C[C@@]1(C(=O)Nc2ccccc2O)CC(c2ccc3c(=O)n(-c4ccc(F)cc4)c(CCCCC(=O)O)nc3c2)=NO1 [Example 191] | ≤ 10 nM
3 | CC(C)(C)OC(=O)C1(C)CC(c2ccc3c(=O)n(-c4ccc(F)cc4)c(CCCCC(=O)O)nc3c2)=NO1 (centres unmarked) [Example 192] | ≤ 10 nM
4 | CC1(c2cc3ccccn3n2)CC(c2ccc3c(=O)n(-c4ccc(F)cc4)c(CCCCC(=O)O)nc3c2)=NO1 (centres unmarked) [Example 193] | ≤ 10 nM
5 | CC1(c2nc3cc(F)c(F)cc3[nH]2)CC(c2ccc3c(=O)n(-c4ccc(F)cc4)c(CCCCC(=O)O)nc3c2)=NO1 (centres unmarked) [Example 194] | ≤ 10 nM
6 | Cc1cccc2nc(C3(C)CC(c4ccc5c(=O)n(-c6ccc(F)cc6)c(CCCCC(=O)O)nc5c4)=NO3)[nH]c12 (centres unmarked) [Example 195] | ≤ 10 nM
7 | C[C@@]1(c2nc3cc(C(F)(F)F)ccc3[nH]2)CC(c2ccc3c(=O)n(-c4ccc(F)cc4)c(CCCCC(=O)O)nc3c2)=NO1 [Example 196] | ≤ 10 nM
8 | CC1(c2nc3cc(Cl)c(F)cc3[nH]2)CC(c2ccc3c(=O)n(-c4ccc(F)cc4)c(CCCCC(=O)O)nc3c2)=NO1 (centres unmarked) [Example 197] | ≤ 10 nM
9 | CC1(c2nc3cc(F)cc(F)c3[nH]2)CC(c2ccc3c(=O)n(-c4ccc(F)cc4)c(CCCCC(=O)O)nc3c2)=NO1 (centres unmarked) [Example 198] | ≤ 10 nM
10 | CC1(C(=O)N2Cc3ccccc3C2)CC(c2ccc3c(=O)n(-c4ccc(F)cc4)c(CCCCC(=O)O)nc3c2)=NO1 (centres unmarked) [Example 199] | ≤ 10 nM
11 | CC1(C(=O)O)CC(c2ccc3c(=O)n(-c4ccc(F)cc4)c(CCCCC(=O)O)nc3c2)=NO1 (centres unmarked) [Example 200] | 10 to 50 nM
12 | C[C@@]1(c2cc3ccccn3n2)CC(c2ccc3c(=O)n(-c4ccc(F)cc4)c(CCCCC(=O)O)nc3c2)=NO1 [Example 201] | ≤ 10 nM
13 | C[C@]1(c2cc3ccccn3n2)CC(c2ccc3c(=O)n(-c4ccc(F)cc4)c(CCCCC(=O)O)nc3c2)=NO1 [Example 202] | 10 to 50 nM
14 | Cc1cccc2[nH]c([C@]3(C)CC(c4ccc5c(=O)n(-c6ccc(F)cc6)c(CCCCC(=O)O)nc5c4)=NO3)nc12 [Example 203] | ≤ 10 nM
15 | CC1(c2nc3cc(F)ccc3[nH]2)CC(c2ccc3c(=O)n(-c4ccc(Cl)cc4)c(CCCCC(=O)O)nc3c2)=NO1 (centres unmarked) [Example 205] | ≤ 10 nM
16 | CC1(c2nc3cc(Cl)ccc3[nH]2)CC(c2ccc3c(=O)n(-c4ccc(Cl)cc4)c(CCCCC(=O)O)nc3c2)=NO1 (centres unmarked) [Example 206] | ≤ 10 nM
17 | C[C@@]1(c2nc3cc(F)c(F)cc3[nH]2)CC(c2ccc3c(=O)n(-c4ccc(F)cc4)c(CCCCC(=O)O)nc3c2)=NO1 [Example 207] | 10 to 50 nM and 17 nM
18 | C[C@]1(c2nc3cc(F)c(F)cc3[nH]2)CC(c2ccc3c(=O)n(-c4ccc(F)cc4)c(CCCCC(=O)O)nc3c2)=NO1 [Example 208] | ≤ 10 nM
19 | C[C@@]1(c2nc3cc(Cl)c(F)cc3[nH]2)CC(c2ccc3c(=O)n(-c4ccc(F)cc4)c(CCCCC(=O)O)nc3c2)=NO1 [Example 209] | ≤ 10 nM
20 | C[C@]1(c2nc3cc(Cl)c(F)cc3[nH]2)CC(c2ccc3c(=O)n(-c4ccc(F)cc4)c(CCCCC(=O)O)nc3c2)=NO1 [Example 210] | 10 to 50 nM

Row | Compound | Ki
21 | CC1(C(=O)N2CCc3ccccc32)CC(c2ccc3c(=O)n(-c4ccc(F)cc4)c(CCCCC(=O)O)nc3c2)=NO1 (centres unmarked) [Example 211] | ≤ 10 nM
22 | CC1(C(=O)N2CCCCC2)CC(c2ccc3c(=O)n(-c4ccc(F)cc4)c(CCCCC(=O)O)nc3c2)=NO1 (centres unmarked) [Example 212] | 10 to 50 nM
23 | C[C@@]1(c2nc3c(F)cc(F)cc3[nH]2)CC(c2ccc3c(=O)n(-c4ccc(F)cc4)c(CCCCC(=O)O)nc3c2)=NO1 [Example 213] | ≤ 10 nM
24 | C[C@@]1(C(=O)N[C@H]2c3ccccc3C[C@H]2O)CC(c2ccc3c(=O)n(-c4ccc(F)cc4)c(CCCCC(=O)O)nc3c2)=NO1 [Example 215] | ≤ 10 nM
25 | C[C@]1(C(=O)N[C@@H]2c3ccccc3C[C@@H]2O)CC(c2ccc3c(=O)n(-c4ccc(F)cc4)c(CCCCC(=O)O)nc3c2)=NO1 [Example 216] | 10 to 50 nM
26 | CC1(c2nc3cc(F)c(F)cc3[nH]2)CC(c2ccc3c(=O)n(-c4ccc(Cl)cc4)c(CCCCC(=O)O)nc3c2)=NO1 (centres unmarked) [Example 219] | ≤ 10 nM
27 | C[C@@]1(c2nc3ccc(F)cc3[nH]2)CC(c2ccc3c(=O)n(-c4ccc(Cl)cc4)c(CCCCC(=O)O)nc3c2)=NO1 [Example 220] | ≤ 10 nM
28 | C[C@@]1(c2nc3ccc(Cl)cc3[nH]2)CC(c2ccc3c(=O)n(-c4ccc(Cl)cc4)c(CCCCC(=O)O)nc3c2)=NO1 [Example 222] | ≤ 10 nM
29 | C[C@@]1(c2nc3cc(F)c(F)cc3[nH]2)CC(c2ccc3c(=O)n(-c4ccc(Cl)cc4)c(CCCCC(=O)O)nc3c2)=NO1 [Example 224] | ≤ 10 nM
30 | C[C@]1(c2nc3cc(F)c(F)cc3[nH]2)CC(c2ccc3c(=O)n(-c4ccc(Cl)cc4)c(CCCCC(=O)O)nc3c2)=NO1 [Example 225] | 10 to 50 nM
31 | CC1(c2ncc3ccccn23)CC(c2ccc3c(=O)n(-c4ccc(F)cc4)c(CCCCC(=O)O)nc3c2)=NO1 (centres unmarked) [Example 226] | 10 to 50 nM
32 | C[C@@]1(c2ncc3ccccn23)CC(c2ccc3c(=O)n(-c4ccc(F)cc4)c(CCCCC(=O)O)nc3c2)=NO1 [Example 227] | 10 to 50 nM
33 | CC1(C(=O)Nc2ccc(F)cc2O)CC(c2ccc3c(=O)n(-c4ccc(F)cc4)c(CCCCC(=O)O)nc3c2)=NO1 (centres unmarked) [Example 229] | ≤ 10 nM
34 | CC1(c2cnc3ccccc3n2)CC(c2ccc3c(=O)n(-c4ccc(F)cc4)c(CCCCC(=O)O)nc3c2)=NO1 (centres unmarked) [Example 230] | 10 to 50 nM
35 | C[C@@]1(C(=O)Nc2ccc(F)cc2O)CC(c2ccc3c(=O)n(-c4ccc(F)cc4)c(CCCCC(=O)O)nc3c2)=NO1 [Example 231] | ≤ 10 nM
36 | C[C@@]1(C(=O)NCc2ccccc2)CC(c2ccc3c(=O)n(-c4ccc(F)cc4)c(CCCCC(=O)O)nc3c2)=NO1 [Example 234] | 10 to 50 nM
37 | C[C@@]1(c2cccc(Br)c2)CC(c2ccc3c(=O)n(-c4ccc(F)cc4)c(CCCCC(=O)O)nc3c2)=NO1 [Example 235] | ≤ 10 nM
38 | C[C@]1(c2cccc(Br)c2)CC(c2ccc3c(=O)n(-c4ccc(F)cc4)c(CCCCC(=O)O)nc3c2)=NO1 [Example 236] | 10 to 50 nM
39 | C[C@@]1(C(=O)NCc2ccc(C#N)cc2)CC(c2ccc3c(=O)n(-c4ccc(F)cc4)c(CCCCC(=O)O)nc3c2)=NO1 [Example 237] | 10 to 50 nM
40 | C[C@@]1(C(=O)N2Cc3ccccc3C2)CC(c2ccc3c(=O)n(-c4ccc(F)cc4)c(CCCCC(=O)O)nc3c2)=NO1 [Example 238] | 10 to 50 nM

Row | Compound | Ki
41 | C[C@@]1(C(=O)N2CC[C@H](c3ccccc3)C2)CC(c2ccc3c(=O)n(-c4ccc(F)cc4)c(CCCCC(=O)O)nc3c2)=NO1 [Example 239] | 10 to 50 nM
42 | COc1ccc(Cc2nc(-c3ccc4c(=O)n(-c5ccc(F)cc5)c(CCCCC(=O)O)nc4c3)no2)cc1 [Example 240] | ≤ 10 nM
43 | O=C(O)CCCCc1nc2cc(-c3noc(CCc4ccc(F)cc4)n3)ccc2c(=O)n1-c1ccc(F)cc1 [Example 241] | ≤ 10 nM
44 | O=C(O)CCCCc1nc2cc(-c3noc(C4Cc5ccccc5C4)n3)ccc2c(=O)n1-c1ccc(F)cc1 [Example 242] | ≤ 10 nM
45 | N#Cc1ccc(Cc2nc(-c3ccc4c(=O)n(-c5ccc(F)cc5)c(CCCCC(=O)O)nc4c3)no2)cc1 [Example 243] | 10 to 50 nM
46 | O=C(O)CCCCc1nc2cc(-c3noc(C4CCCc5ccccc54)n3)ccc2c(=O)n1-c1ccc(F)cc1 (centres unmarked) [Example 244] | ≤ 10 nM
47 | O=C(O)CCCCc1nc2cc(-c3noc(C4CCCc5ccccc54)n3)ccc2c(=O)n1-c1ccc(F)cc1 (centres unmarked) [Example 245] | 10 to 50 nM
48 | O=C(O)CCCCc1nc2cc(-c3noc(C4CCc5ccccc5C4)n3)ccc2c(=O)n1-c1ccc(F)cc1 (centres unmarked) [Example 246] | ≤ 10 nM
49 | O=C(O)CCCCc1nc2cc(-c3noc(C4CCc5ccccc5C4)n3)ccc2c(=O)n1-c1ccc(F)cc1 (centres unmarked) [Example 247] | 10 to 50 nM
50 | O=C(O)CCCCc1nc2cc(-c3noc(-c4nc5ccc(F)cc5o4)n3)ccc2c(=O)n1-c1ccc(F)cc1 [Example 248] | 10 to 50 nM
51 | CC(c1ccc(F)cc1)c1nc(-c2ccc3c(=O)n(-c4ccc(F)cc4)c(CCCCC(=O)O)nc3c2)no1 (centres unmarked) [Example 249] | 10 to 50 nM
52 | C=C(c1ccc(F)cc1)c1cc(-c2ccc3c(=O)n(-c4ccc(F)cc4)c(CCCCC(=O)O)nc3c2)no1 [Example 250] | ≤ 10 nM
53 | N#Cc1ccccc1C1CC(c2ccc3c(=O)n(-c4ccc(F)cc4)c(CCCCC(=O)O)nc3c2)=NO1 (centres unmarked) [Example 251] | ≤ 10 nM
54 | CC1(c2ccncc2)CC(c2ccc3c(=O)n(-c4ccc(F)cc4)c(CCCCC(=O)O)nc3c2)=NO1 (centres unmarked) [Example 252] | ≤ 10 nM
55 | CC1(c2cccnc2)CC(c2ccc3c(=O)n(-c4ccc(F)cc4)c(CCCCC(=O)O)nc3c2)=NO1 (centres unmarked) [Example 253] | ≤ 10 nM
56 | CCCC1(c2ccccc2)CC(c2ccc3c(=O)n(-c4ccc(F)cc4)c(CCCCC(=O)O)nc3c2)=NO1 (centres unmarked) [Example 254] | ≤ 10 nM
57 | CCCCC1(c2ccccc2)CC(c2ccc3c(=O)n(-c4ccc(F)cc4)c(CCCCC(=O)O)nc3c2)=NO1 (centres unmarked) [Example 255] | ≤ 10 nM
58 | CC[C@@](O)(c1ccc(F)cc1)c1cc(-c2ccc3c(=O)n(-c4ccc(F)cc4)c(CCCCC(=O)O)nc3c2)no1 [Example 256] | ≤ 10 nM
59 | CC[C@](O)(c1ccc(F)cc1)c1cc(-c2ccc3c(=O)n(-c4ccc(F)cc4)c(CCCCC(=O)O)nc3c2)no1 [Example 257] | ≤ 10 nM
